Laboratory results as given in patent US8771611B2, “System and methods of log-scale concentration gradients” (Auburn University, priority 2011, dated 2014).
Read-outs that look alike come from different tables or passages of the source.

Tests used:
MMP-9 enzyme [1] = biological target: T1, MMP-9 enzyme (Homo sapiens, UniProt P14780); experiment: off-chip experiment, IC50 of MMP-9 inhibitors; format: biochemical; details: read-out: IC50 from the off-chip experiment
From the text: These deviations in the values of IC50 are acceptable, considering enzyme as a biological sample with variable properties.

[2] = biological target: matrix metalloproteases-9 (MMP-9) (Homo sapiens, UniProt P14780); experiment: on-chip (microfluidic chip) logistic dose response of MMP-9 inhibitors, fluorogenic MMP substrate III; format: biochemical; details: for deviation in the IC50 values between on-chip and off-chip experiment: comparison on-chip vs off-chip; for IC50: on-chip, 22.15 μM substrate, 5 nM enzyme, inhibitor range 0.063 nM~250 nM, four parameter logistic fit, read-out: IC50 (on-chip, from dose response plots)
From the text: Therefore, a concentration range of 0 to 1000×, in logarithmic scale, is able to be generated in a single experiment.
To determine the kinetic parameters, KM and kcat, the initial velocities of the individual reactions are able to be curve-fitted with the Michaelis-Menten equation using the enzyme kinetics module of Sigmaplot software (Systat software Inc.). For IC50 values with standard error, and 95% confidence interval, the four parameter nonlinear-logistic-regression model available to the inhibition data are curve-fitted. The four parameter model is of the form as shown in the equation (1) below.
[formula] Where, IC50 refers to median point of the concentration-response plot; [I] represents the concentration of inhibitor; h is the Hill coefficient or Hill slope, which means the steepness of dose-response plot; %I designates percentage inhibiting potency, including minimum and maximum.
Therefore, by introducing the three concentrations of inhibitor and buffer, meaningful logarithmic concentrations for dose response are generated such as 0, 1, 2.5, 5, 7.5, 10, 25, 50, 75, 100, 250, 500, 750 and 1000× by the device disclosed herein in semi-direct dilution.
An inhibitor concentration range of 0.063 nM˜250 nM (1:4000) is created on the chip in the 14 reactors. Note that, all the 14 reactors are used considering the requirement of a wider concentration range of inhibitors (FIG. 2D), 22.15 μM of substrate and 5 nM of enzyme are used, respectively.
The substrate QXLTM520-Pro-Leu-Gly-Cys-(Me)-His-Ala-D-Arg-Lys-(5-carboxy-fluorescein)-NH2 (AnaSpec Inc), internally quenched peptide matrix of matrix metalloproteinases-9 (MMP-9) is used for the enzyme reaction. This substrate releases fluorescent signals through dissociation of the quencher (QXLTM520) and carboxyfluorescein (FAM), fluorophore, via proteolytic cleavage by enzymatic reaction. […] For establishing a standard curve, reference dye, FAM-Pro-Leu-OH is used. The excitation and emission wavelengths for FAM are 480 nm and 520 nm, respectively. According to the enzyme reaction types, 50 nM, 10 nM, and 5 nM of MMP-9 are separately dissolved into the reaction buffer (TCNBT; 50 mM Tris, 10 mM CaCl2, 150 mM NaCl, 0.05% Brij-35, 0.05% Tween-20 and 0.1% BSA at pH 7.5). For the substrate of MMP, a stock solution is prepared as 100 μM in TCNBT buffer. […] Prepared reagents are stored at −20 ° C. until dilution with TCNBT buffer for experiment.

MMP-9 enzyme [3] = biological target: T1, MMP-9 enzyme; details: from some literature; read-out: reported IC50 values from literature; cited from earlier work

T1 sequence (P14780 94-707): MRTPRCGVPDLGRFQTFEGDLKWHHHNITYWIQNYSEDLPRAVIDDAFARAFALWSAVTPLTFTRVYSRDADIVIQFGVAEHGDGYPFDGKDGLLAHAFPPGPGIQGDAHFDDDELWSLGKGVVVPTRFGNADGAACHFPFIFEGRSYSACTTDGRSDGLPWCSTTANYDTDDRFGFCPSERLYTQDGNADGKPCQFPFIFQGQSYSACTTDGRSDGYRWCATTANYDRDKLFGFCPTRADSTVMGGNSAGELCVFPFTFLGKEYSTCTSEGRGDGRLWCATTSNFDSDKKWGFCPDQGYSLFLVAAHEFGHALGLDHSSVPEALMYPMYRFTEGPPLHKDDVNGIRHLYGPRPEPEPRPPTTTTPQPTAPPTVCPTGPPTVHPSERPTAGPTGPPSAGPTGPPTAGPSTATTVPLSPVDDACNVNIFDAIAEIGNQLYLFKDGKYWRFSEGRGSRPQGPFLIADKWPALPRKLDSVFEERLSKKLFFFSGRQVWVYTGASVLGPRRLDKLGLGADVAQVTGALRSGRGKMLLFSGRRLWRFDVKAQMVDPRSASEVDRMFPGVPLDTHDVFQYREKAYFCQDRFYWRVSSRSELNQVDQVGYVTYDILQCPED
Sequence of matrix metalloproteases-9 (MMP-9) (P14780 94-707): as above

| IC50 (MMP-9 enzyme [1]) [nM] | deviation in the IC50 values between on-chip and off-chip experiment [2] [%] | IC50 [2] [nM] | SMILES | IC50 (MMP-9 enzyme [3]) [nM] |
| --- | --- | --- | --- | --- |
| 14.9 ± 0.9 | 20 | 11.9 ± 1 | CC(C)(NS(=O)(=O)c1ccc(Oc2ccc(F)cc2)cc1)C(=O)NO [CP417474] | – |
| 3.5 ± 0.3 | – | 4.1 ± 0.2 | CNC(=O)[C@H](Cc1ccccc1)NC(=O)[C@H](CC(C)C)[C@H](CSc1cccs1)C(=O)NO [batimastat] | 3 to 4 |
| – | 3.2 | – | CNC(=O)[C@@H](NC(=O)[C@H](CC(C)C)[C@H](O)C(=O)NO)C(C)(C)C [marimastat] | – |
